Measured values from the NIST ThermoML archive (doi:10.1021/je700339f).

Experiment: xn = mol fraction of the nth substance listed
Conditions: 298 K, Liquid

ClCCCCCCCl [1,6-dichlorohexane] + CN(C)C=O
mass density [kg/m3]
Conditions	x2 = 0.0986	x2 = 0.2013	x2 = 0.3197	x2 = 0.4014	x2 = 0.5033	x2 = 0.6037	x2 = 0.7034	x2 = 0.8019	x2 = 0.9008
100 kPa	1056.4	1048.6	1038.2	1030.1	1019	1007.3	994.3	980	963.6
500 kPa	1056.6	1048.8	1038.4	1030.3	1019.3	1007.6	994.6	980.3	963.9
1000 kPa	–	1049.2	1038.8	1030.7	1019.6	1007.9	995	980.6	964.2
1100 kPa	1057.1	–	–	–	–	–	–	–	–
1500 kPa	1057.3	1049.6	1039.2	1031.1	1020	1008.2	995.3	980.9	964.5
2000 kPa	1057.7	1049.9	1039.5	1031.4	1020.3	1008.6	995.6	981.3	964.8
2500 kPa	1058	1050.2	1039.8	1031.7	1020.7	1008.9	995.9	981.6	965.1
2900 kPa	–	–	–	–	1021	–	–	–	–
3000 kPa	1058.4	1050.6	1040.2	1032.1	–	1009.2	996.3	981.9	965.4
3500 kPa	1058.7	1050.9	1040.5	1032.4	1021.3	1009.6	996.6	982.2	965.8
4000 kPa	1059.1	1051.3	1040.8	1032.8	1021.7	1009.9	996.9	982.6	966.1
4500 kPa	1059.4	1051.6	1041.2	1033.2	1022	1010.2	997.2	982.9	966.4
4900 kPa	–	–	–	–	–	–	–	983.2	–
5000 kPa	1059.8	1052	1041.5	1033.4	1022.3	1010.5	997.5	–	966.7
5500 kPa	1060.1	1052.3	1041.8	1033.8	1022.6	1010.9	997.8	983.5	967
5900 kPa	–	–	–	–	–	1011.2	–	–	–
6000 kPa	1060.4	1052.6	1042.2	1034.2	1023	–	998.2	983.9	967.3
6400 kPa	–	–	–	–	–	–	–	984.2	–
6500 kPa	1060.8	1053	1042.6	1034.5	1023.3	1011.5	998.5	–	967.7
6900 kPa	–	–	–	1034.8	–	–	–	–	967.8
7000 kPa	1061.1	1053.3	1042.9	–	1023.7	1011.9	998.8	984.5	–
7400 kPa	–	–	–	1035.1	–	–	–	–	–
7500 kPa	1061.5	1053.7	1043.2	–	1024	1012.2	999.1	984.8	968.2
7900 kPa	1061.8	–	–	–	–	–	–	–	–
8000 kPa	–	1054	1043.5	1035.5	1024.4	1012.6	999.5	985.1	968.5
8400 kPa	–	–	–	–	–	1012.8	–	985.4	968.8
8500 kPa	1062.2	1054.4	1043.8	1035.8	1024.6	–	999.8	–	–
8900 kPa	–	–	–	–	–	1013.1	–	–	–
9000 kPa	1062.5	1054.7	1044.2	1036.1	1025	–	1000.1	985.8	969.1
9400 kPa	–	–	–	–	–	–	–	–	969.4
9500 kPa	1062.8	1055.1	1044.5	1036.5	1025.3	1013.5	1000.4	986.1	–
10000 kPa	1063.1	1055.5	1044.9	1036.9	1025.7	1013.9	1000.8	986.4	969.8
10400 kPa	–	–	–	–	–	–	–	986.7	969.9
10500 kPa	1063.5	1055.8	1045.3	1037.2	1026	1014.2	1001.1	–	–
10900 kPa	1063.8	–	–	–	–	–	–	987	–
11000 kPa	–	1056.1	1045.5	1037.5	1026.4	1014.5	1001.4	–	970.3
11400 kPa	–	–	1045.8	–	–	1014.8	–	–	–
11500 kPa	1064.2	1056.4	–	1037.8	1026.7	–	1001.8	987.4	970.5
11900 kPa	–	–	–	–	–	1015.1	–	–	–
12000 kPa	1064.5	1056.8	1046.2	1038.2	1027	–	1002	987.6	970.8
12400 kPa	–	–	–	–	–	1015.4	–	–	971.1
12500 kPa	1064.9	1057.1	1046.5	1038.4	1027.3	–	1002.4	988	–
12900 kPa	1065.2	–	–	1038.8	–	–	–	–	–
13000 kPa	–	1057.4	1046.8	–	1027.6	1016	1002.7	988.2	971.3
13500 kPa	1065.5	1057.8	1047.2	1039.2	1028	1016.3	1003	988.6	971.6
13900 kPa	–	–	–	1039.5	–	–	–	–	–
14000 kPa	1065.8	1058.1	1047.5	–	1028.3	1016.6	1003.3	989	971.9
14400 kPa	–	–	–	–	–	1016.8	–	–	–
14500 kPa	–	1058.4	1047.8	1039.8	1028.6	–	1003.5	989.2	972.2
14600 kPa	1066.2	–	–	–	–	–	–	–	–
15000 kPa	1066.5	1058.7	1048.2	1040	1028.9	1017.3	1003.9	989.5	972.6
15400 kPa	–	–	–	–	1029.2	1017.6	–	–	–
15500 kPa	1066.9	1059	1048.6	1040.4	–	–	1004.2	989.8	972.8
15900 kPa	–	1059.3	–	1040.7	–	–	–	990.1	–
16000 kPa	1067.1	–	1048.8	–	1029.6	1018	1004.5	–	973.1
16400 kPa	–	1059.6	–	1041	–	–	–	–	–
16500 kPa	1067.4	–	1049	–	1030	1018.2	1004.8	990.4	973.4
17000 kPa	1067.8	1060	1049.4	1041.4	1030.3	1018.5	1005.1	990.7	973.7
17500 kPa	1068.2	1060.3	1049.7	1041.7	1030.5	1018.8	1005.4	990.9	974
17900 kPa	–	–	1050	–	–	–	–	991.2	–
18000 kPa	1068.5	1060.6	–	1042	1030.9	1019.1	1005.6	–	974.3
18500 kPa	1068.8	1060.9	1050.3	1042.3	1031.2	1019.4	1005.9	991.5	974.7
19000 kPa	1069.2	1061.2	1050.7	1042.6	1031.5	1019.8	1006.3	991.9	975.1
19400 kPa	–	1061.5	–	–	–	–	–	–	–
19500 kPa	1069.5	–	1051	1042.9	1031.8	1020.1	1006.6	992.2	975.4
20000 kPa	1069.8	1062	1051.5	1043.2	1032.2	1020.5	1007	992.5	975.8
